Among the test systems are IGROV-1; SNB-19; MOLT-4; UACC-257; KM12; SF-539; MDA-MB-435; Malme-3M; SF-295; COLO 205; SF-268; A498; EKVX; SW-620; K562; SK-OV-3; RPMI-8226; OVCAR-5; 786-0; HCT-15.
Common to all, as to assay: inhibition of tumour cell growth, NCI panel, 48 h

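Cultured in 96-well plates, cells were exposed to test compound for 48 hours across five concentrations. GI50: concentration for 50% inhibition of growth.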 The source made the active and inactive calls. Cut-off read from the data, not from the text of the source: active = GI50 up to about 1.1 µM and inactive = higher.

For the compound `CC1(C)[C@@H]2CC[C@@]1(C)C1(S[S+]1[O-])C21Cc2ccccc2C1` (some centres undefined), the GI50 was 17.2 µM (inactive) in the assay on IGROV-1; > 100 µM (inactive) in the assay on SNB-19; 16.3 µM (inactive) in the assay with MOLT-4; 20.9 µM (inactive) with UACC-257; 56.1 µM (inactive) in the assay with KM12; 24.5 µM (inactive) in the assay on SF-539. Moreover, the GI50 is 29.4 µM (inactive) in the assay with MDA-MB-435; 38.8 µM (inactive) with Malme-3M; 57.1 µM (inactive) with SF-295; 30.6 µM (inactive) in the assay on COLO 205; 33.1 µM (inactive) with SF-268; 28.7 µM (inactive) in the assay with A498. Further, the GI50 in the assay with EKVX is 23.8 µM (inactive); in the assay on SW-620 it was 14.7 µM (inactive); in the assay on K562 it was 17.4 µM (inactive); in the assay with SK-OV-3, > 100 µM (inactive); with RPMI-8226 it was 21 µM (inactive); in the assay on OVCAR-5, 20.6 µM (inactive). In addition, the values for the GI50 in the assay on 786-0 and in the assay on HCT-15 were 16.4 µM (inactive) and 22.6 µM, respectively.

Turning to `Nc1cccc(-c2cc(O)c3cc4c(cc3n2)OCO4)c1`, the GI50 with SNB-19 is 2.19 µM (inactive); in the assay on MOLT-4, 2.07 µM (inactive); with KM12 it was 0.593 µM (active); in the assay with SF-539 it was 0.544 µM (active); with MDA-MB-435, 0.16 µM (active); with Malme-3M, 0.318 µM (active). Besides, the GI50 was 2.87 µM (inactive) in the assay with SF-295; 0.384 µM (active) with COLO 205; 1.77 µM (inactive) in the assay with SF-268; 2.45 µM (inactive) in the assay on A498; 3.27 µM (inactive) in the assay with EKVX; 0.519 µM (active) in the assay with SW-620. The GI50 was 0.792 µM (active) with K562; 1.28 µM (inactive) in the assay with SK-OV-3; 6.35 µM (inactive) in the assay with RPMI-8226; > 100 µM (inactive) in the assay with OVCAR-5; 2.16 µM (inactive) in the assay with 786-0; 1.23 µM in the assay with HCT-15.

Regarding `COc1ccc(C(=O)/C=C/c2ccc3c(c2)OCO3)c(OCc2ccccc2)c1`, the GI50 in the assay with IGROV-1 was 17.7 µM (inactive); with SNB-19 it was > 100 µM (inactive); in the assay on MOLT-4 it was 3.8 µM (inactive); in the assay on UACC-257, > 63 µM (inactive); with KM12, 4.83 µM (inactive); in the assay on SF-539, 32.7 µM (inactive). Further, the GI50 in the assay on MDA-MB-435 is 25.5 µM (inactive); with Malme-3M, > 100 µM (inactive); with SF-295, > 61.8 µM (inactive); in the assay with COLO 205, > 75.5 µM (inactive); with SF-268, 6.76 µM (inactive); in the assay with A498, > 84.9 µM (inactive). Besides, the GI50 with EKVX is 29.8 µM (inactive); in the assay on SW-620, 8.71 µM (inactive); with K562 it was 12.5 µM (inactive); in the assay on SK-OV-3, > 54.8 µM (inactive); in the assay on RPMI-8226 it was 4.45 µM (inactive); in the assay on OVCAR-5 it was > 76.7 µM (inactive). Moreover, the GI50 in the assay with 786-0 is > 67.8 µM (inactive); in the assay with HCT-15, 5.08 µM.

As to `N=C(N)N/N=C(/c1ccccc1)c1ccc(O)cc1O`, the GI50 with IGROV-1 is 25.1 µM (inactive); in the assay with SNB-19, 40.6 µM (inactive); in the assay with UACC-257, 35.6 µM (inactive); in the assay on KM12 it was 30.5 µM (inactive); in the assay with SF-539, 18.5 µM (inactive); in the assay on MDA-MB-435 it was 19.1 µM (inactive). The GI50 with Malme-3M was 22.6 µM (inactive); with SF-295, 28.2 µM (inactive); in the assay on COLO 205, 17.5 µM (inactive); with SF-268 it was 32.6 µM (inactive); in the assay on A498, 21.9 µM (inactive); in the assay on EKVX, 22.2 µM (inactive). For the same compound, the GI50 in the assay on SW-620 was 36.7 µM (inactive); with K562, 46.3 µM (inactive); in the assay on SK-OV-3, 33.4 µM (inactive); with RPMI-8226, 30.5 µM (inactive); with OVCAR-5, 33 µM (inactive); in the assay on 786-0, 29.2 µM (inactive). Moreover, the GI50 in the assay on HCT-15 was 39.4 µM.

In the case of `O=C(Nc1cccc(Cl)c1)Nn1cnnc1`, the GI50 in the assay on IGROV-1, in the assay on SNB-19, in the assay with MOLT-4, in the assay with UACC-257, in the assay with KM12 and in the assay on SF-539 was > 100 µM (inactive) in each case. Moreover, the GI50 in the assay with MDA-MB-435, in the assay with Malme-3M, in the assay on SF-295, in the assay with COLO 205, with SF-268 and in the assay on A498 was > 100 µM (inactive) in each case. Further, the GI50 is > 100 µM (inactive) in the assay with EKVX; > 100 µM (inactive) with SW-620; > 100 µM (inactive) in the assay on K562; > 100 µM (inactive) in the assay with SK-OV-3; > 100 µM (inactive) with RPMI-8226; 0.339 µM (active) in the assay on OVCAR-5. For the same compound, the GI50 with 786-0 is > 100 µM (inactive); with HCT-15, greater than 100 µM.

For `CC(C)/C(Cl)=N\OC(=O)Nc1ccc(F)c([N+](=O)[O-])c1`, the GI50 in the assay with IGROV-1 is 6.53 µM (inactive); in the assay on SNB-19, 16.7 µM (inactive); in the assay with MOLT-4 it was 1.57 µM (inactive); with UACC-257 it was 16.1 µM (inactive); with KM12 it was 14.6 µM (inactive); with SF-539 it was 3 µM (inactive). The GI50 in the assay with MDA-MB-435 was 12.3 µM (inactive); in the assay on Malme-3M, 1.16 µM (inactive); in the assay on SF-295, 19.1 µM (inactive); in the assay with COLO 205, 2.03 µM (inactive); in the assay on SF-268 it was 14.3 µM (inactive); in the assay on A498, 19.2 µM (inactive). The GI50 is 11.7 µM (inactive) with EKVX; 2.35 µM (inactive) in the assay with SW-620; 2.87 µM (inactive) in the assay on K562; 19.1 µM (inactive) in the assay with SK-OV-3; 2.43 µM (inactive) in the assay on RPMI-8226; 20.6 µM (inactive) with OVCAR-5. For the same compound, the GI50 is 2.78 µM (inactive) in the assay with 786-0 and 2.59 µM in the assay with HCT-15.

For `CCOC(=O)Cc1nnc2c(-c3ccccc3)nc3ccccc3n12`, the GI50 was 85.7 µM (inactive) in the assay on IGROV-1; 24.8 µM (inactive) with SNB-19; > 100 µM (inactive) in the assay with MOLT-4; > 100 µM (inactive) in the assay on UACC-257; > 100 µM (inactive) in the assay with KM12; > 100 µM (inactive) in the assay on SF-539. Further, the GI50 in the assay on MDA-MB-435 was > 100 µM (inactive); in the assay with Malme-3M, > 100 µM (inactive); in the assay on COLO 205, > 100 µM (inactive); in the assay on SF-268, 20.6 µM (inactive); with A498, 52.5 µM (inactive); with EKVX, 27.9 µM (inactive). Moreover, the GI50 with SW-620 was > 100 µM (inactive); in the assay on K562, > 100 µM (inactive); in the assay on SK-OV-3, 23.8 µM (inactive); with RPMI-8226 it was > 100 µM (inactive); in the assay with OVCAR-5 it was 63.5 µM (inactive); in the assay on 786-0 it was > 100 µM (inactive). This compound showed a GI50 in the assay on HCT-15 of 56.2 µM.

On to `CC(=O)c1c2c(cc3c1CC1(Cc4cc5c(cc4C1)CCC5)C3)CCC2`, for which the GI50 in the assay on IGROV-1 was > 100 µM (inactive); with SNB-19, > 100 µM (inactive); with MOLT-4, > 100 µM (inactive); with UACC-257 it was 63.8 µM (inactive); in the assay on SF-539, > 100 µM (inactive); with MDA-MB-435, > 100 µM (inactive). The GI50 in the assay on Malme-3M, in the assay with SF-295, with SF-268, with A498, in the assay on EKVX and in the assay with SW-620 was > 100 µM (inactive) throughout. Besides, the GI50 was > 100 µM (inactive) in the assay with K562; > 100 µM (inactive) with SK-OV-3; > 100 µM (inactive) in the assay on RPMI-8226; > 100 µM (inactive) in the assay with OVCAR-5; > 100 µM (inactive) in the assay on 786-0; greater than 100 µM in the assay on HCT-15.

With `CC(=O)OCC1OC(OCC2OC(N3C(=S)N[C@H]([C@@H](O)[C@H](O)[C@H](O)CO)[C@H]3O)C(OC(C)=O)C(OC(C)=O)C2OC(C)=O)C(OC(C)=O)C(OC(C)=O)C1OC(C)=O` (some centres undefined), the GI50 in the assay on SNB-19, with MOLT-4, in the assay on KM12, with SF-539, with MDA-MB-435 and with Malme-3M was > 100 µM (inactive) in each case. Besides, the GI50 was > 100 µM (inactive) in the assay with SF-295; > 100 µM (inactive) in the assay on COLO 205; > 100 µM (inactive) in the assay with SF-268; > 100 µM (inactive) in the assay with A498; > 100 µM (inactive) with SW-620; 28.6 µM (inactive) in the assay with K562. The GI50 was > 100 µM (inactive) in the assay with SK-OV-3; 79.8 µM (inactive) with RPMI-8226; > 100 µM (inactive) in the assay on OVCAR-5; > 100 µM (inactive) in the assay on 786-0; greater than 100 µM in the assay on HCT-15.

As for `CSc1cc(Cl)c(C(=O)Nc2ccccc2)cc1S(=O)(=O)n1ccnc1O`, the GI50 with IGROV-1, in the assay with SNB-19, in the assay with MOLT-4, with UACC-257, in the assay on KM12 and in the assay on SF-539 was > 100 µM (inactive) each time. Besides, the GI50 in the assay with MDA-MB-435, in the assay on Malme-3M, in the assay on COLO 205, in the assay on SF-268, in the assay on A498 and with EKVX was > 100 µM (inactive) each time. In addition, the GI50 with SW-620, in the assay with K562, in the assay with SK-OV-3, with RPMI-8226, in the assay on OVCAR-5 and in the assay with 786-0 was > 100 µM (inactive) throughout. In the assay on HCT-15, the GI50 was greater than 100 µM.

For the compound `O=C(/C=C/c1ccsc1)c1ccsc1`, the GI50 was 31.3 µM (inactive) in the assay with IGROV-1; 20.2 µM (inactive) in the assay with SNB-19; 17.6 µM (inactive) in the assay on MOLT-4; 19.1 µM (inactive) in the assay on UACC-257; 18.9 µM (inactive) in the assay with KM12; 17.5 µM (inactive) in the assay with SF-539. Also, the GI50 in the assay with MDA-MB-435 was 22.5 µM (inactive); in the assay with Malme-3M, 26.4 µM (inactive); with SF-295, 40.7 µM (inactive); in the assay with COLO 205, 22.4 µM (inactive); in the assay on SF-268, 44.8 µM (inactive); with A498 it was 37.5 µM (inactive). For the same compound, the GI50 in the assay on EKVX was 70.5 µM (inactive); in the assay with SW-620, 24.8 µM (inactive); with K562, > 10 µM (inactive); with SK-OV-3, > 100 µM (inactive); with RPMI-8226, 15.5 µM (inactive); in the assay with 786-0 it was 21.4 µM (inactive). In the assay with HCT-15, this compound gave a GI50 of 19.1 µM.
